From PubChem BioAssay AID1963834 (Molecular Pharmacology Branch, DTP, NCI, 2024) come the findings set out here.

“And” between values parts separate entries of the source, which are not always exact repeats. Equal entries are not always repeated.

The experiment concerns 873145-292-R-J1-PDC complex spheroid viability. In words: Anticancer human tumor 873145-292-R-J1-PDC patient-derived renal clear cell carcinoma cell line growth inhibition [POLQ]. Conditions: for viability, T/C: stronger effect = lower value; for IC50: curve of compound. Here is the method: Multicellular complex tumor spheroid response to Polymerase (POL) inhibitors (novobiocin, ART-558, RP6685) in combination with a variety of drugs and investigational agents in selected tumor cell lines
The POL inhibitors (novobiocin, ART-558, and RP6685) were evaluated both individually and in combination with standard of care and investigational anticancer small molecules within a complex spheroid model of solid tumors. . Complex spheroids include a stromal component modeled by human endothelial cells (HUVEC) and fibroblasts modeled by human mesenchymal stem cells (MSCs). The concentration ranges selected for each drug and investigational agent were based upon clinically achievable concentrations if the clinical Cmax of the agent was known.
Compounds. The drugs and investigational agents: novobiocin (NSC847541), ART-558 (NSC835418), RP-6685 (NSC848927), peposertib (NSC802822), ceralasertib (NSC780249), elimusertib (NSC800525), camonsertib (NSC841442), AZD-1390 (NSC803789), olaparib (NSC753686), talazoparib (NSC767125), rucaparib (NSC756644), sotorasib (NSC818433), MRTX-1133 (NSC836407), SN-38 (NSC673596), topotecan (NSC609699), epotoside (NSC141540), doxorubicin (NSC123127), gemcitabine (NSC613327), 5-fluorouracil (NSC19893), paclitaxel (NSC125973), vemurafenib (NSC761431), MSA-2 (NSC828583), SN-011 (NSC837082), adavosertib (NSC754352), prexasertib (NSC758257), carboplatin (NSC241240) and oxaliplatin (NSC266046), were obtained from the National Cancer Institute (NCI) Developmental Therapeutics Program Chemical Repository (21). The FDA-approved anticancer drug set is available from the Developmental Therapeutics Program at https://dtp.cancer.gov/organization/dscb/obtaining/. […] The stock solutions were prepared in dimethyl sulfoxide (DMSO, Sigma-Aldrich, St. Louis, MO, cat. D2650), except for the platinum compounds which were prepared in saline (Quality Biological, Gaithersburg, MD, cat. 114-055-101), at 800-fold the tested concentration and stored at -70 degrees C prior to their use. All drugs and investigational agents were tested over a range starting from a high concentration at or near the clinical Cmax and decreasing in half-log increments. If the clinical Cmax for an agent had not been determined, the highest concentration tested was 10 microM, except for SN-38, which was tested at a high concentration of 1 microM.
Cell Culture. All cells were maintained in an incubator at 37 degrees C and 5% CO2 with 95% humidity. The PDC lines were cultured according to standard operating procedures established by the NCI PDMR (https://pdmr.cancer.gov). Table 3 of the manuscript, lists the cell lines along with the number of the three cell types plated to form the mct-spheroids and media for tumor cell growth. After thawing, all PDC lines, except 997537-175-T-J1-PDC and 415267-285-R-J2-PDC, were cultured in Matrigel-coated flasks prepared with a working solution of 1X Ham's F-12 nutrient mix, without supplementation (Thermo Fisher Scientific, cat. 11765054), 100 U/mL penicillin-streptomycin (Thermo Fisher Scientific, cat. 15140122), and 2.5% Matrigel (Corning Inc., Corning, NY, cat. 354248) for the first three passages. The two PDC lines 997537-175-T-J1-PDC and 415267-285-R-J2-PDC were cultured on uncoated flasks. The 857933-349-R-J2-PDC line was cultured in 6C/Colon 1B media containing advanced DMEM/F-12 (Thermo Fisher Scientific, cat. 12634028), 10 mM HEPES (Thermo Fisher Scientific, cat. 15630080), 1X GlutaMAX supplement (Thermo Fisher Scientific, cat. 35050061), 0.1 mg/mL primocin (InvivoGen, San Diego, CA, cat. ant-pm-2), 10% defined fetal bovine serum, heat inactivated (HyClone Laboratories Inc., Logan, UT, cat. SH30070.03HI), 50% L-WRN conditioned media (ATCC, cat. CRL-3276), 1.25 mM N-Acetyl-L-cysteine (Sigma-Aldrich, cat. A9165), 10 mM nicotinamide (Sigma-Aldrich, cat. N0636), 1X B-27 supplement (Thermo Fisher Scientific, cat. 17504044), 1X N-2 supplement (Thermo Fisher Scientific, cat. […]
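Also: spheroids exposed to compounds for 7 days before viability readout.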
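For viability, T/C in this document: luminescence signal used as surrogate for viable cell content.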

Regarding `C=CC(=O)N1CCN(c2nc(=O)n(-c3c(C)ccnc3C(C)C)c3nc(-c4c(O)cccc4F)c(F)cc23)C(C)C1` (stereo not given), the IC50 was over 10000 nM. Besides, the viability, T/C (compound 0.0316 µM) is 98.3% and 103% and 94.9%. Besides, the viability, T/C (compound 0.1 µM) was 99.5% and 99.4% and 98.3%. Also, the viability, T/C (compound 0.316 µM) was 107% and 125% and 109%. For the same compound, the viability, T/C (compound 1 µM) was 118% and 113% (2×). Also, the viability, T/C (compound 3.16 µM) is 137% and 134% and 116%. Under “compound 10 µM”, the viability, T/C is 121% and 145% and 124%.

On to `C=CCn1c(=O)c2cnc(Nc3ccc(N4CCN(C)CC4)cc3)nc2n1-c1cccc(C(C)(C)O)n1`, for which the IC50 is over 1000 nM. Also, where the note is “compound 0.00316 µM”, the viability, T/C is 106% and 97.8% and 112%. For the same compound, the viability, T/C (compound 0.01 µM) is 95.9% and 105% and 90.5%. Moreover, for the setting “compound 0.0316 µM”, the viability, T/C is 104% and 92.5% and 97.3%. The viability, T/C (compound 0.1 µM) was 101% and 97.8% and 97.9%. For the same compound, the viability, T/C (compound 0.316 µM) is 76.4% and 84.9% and 85.7%. Besides, the viability, T/C (compound 1 µM) is 74.7% and 77.3% and 80%.

For `CC(=O)O[C@H]1C(=O)[C@@]2(C)[C@H]([C@H](OC(=O)c3ccccc3)[C@]3(O)C[C@H](OC(=O)[C@H](O)[C@@H](NC(=O)c4ccccc4)c4ccccc4)C(C)=C1C3(C)C)[C@]1(OC(C)=O)CO[C@@H]1C[C@@H]2O`, the IC50 was over 3000 nM. Besides, the viability, T/C (compound 0.00949 µM) was 79.4% and 83.2% and 84.7%. Further, where the note is “compound 0.03 µM”, the viability, T/C was 83.6% and 72.1% and 70.3%. For the setting “compound 0.0949 µM”, the viability, T/C was 74% and 72.5% and 60.7%. The viability, T/C (compound 0.3 µM) was 70.2% and 65.1% and 65.8%. Besides, the viability, T/C (compound 0.949 µM) was 69.9% and 66.2% and 67.9%. Moreover, where the note is “compound 3 µM”, the viability, T/C was 63.5% and 72.9% and 57.8%.

Consider `CC(C)n1c(=O)n(C)c2cnc3cc(F)c(-c4ccc(OCCCN5CCCCC5)nc4)cc3c21`, for which the IC50 was over 10000 nM. Further, the viability, T/C (compound 0.0316 µM) was 97.8% and 99.3% and 112%. For the same compound, for the setting “compound 0.1 µM”, the viability, T/C is 103% and 100% and 93.3%. Besides, the viability, T/C (compound 0.316 µM) was 94% and 101% and 112%. In addition, the viability, T/C (compound 1 µM) was 92.8% and 108% and 100%. Under “compound 3.16 µM”, the viability, T/C is 94.8% (2×) and 96.1%. In addition, the viability, T/C (compound 10 µM) was 77.7% and 95.8% and 91.3%.

Turning to `CC1COCCN1c1cc(-c2ccnn2C)c2ccnc(-c3ccn[nH]3)c2n1` (stereo not given), the IC50 was 1210 nM and 1200 nM and > 10000 nM. Further, the viability, T/C (compound 0.0316 µM) is 88.9% and 83.1% and 97%. In addition, the viability, T/C (compound 0.1 µM) is 77.3% and 74.3% and 90%. Further, the viability, T/C (compound 0.316 µM) was 67.5% and 67.3% and 68.5%. In addition, the viability, T/C (compound 1 µM) is 51.8% and 50.8% and 56.1%. For the same compound, for the setting “compound 3.16 µM”, the viability, T/C was 40% and 41.9% and 52.3%. Moreover, where the note is “compound 10 µM”, the viability, T/C was 39.3% and 41.4% and 57.8%.

`CC1COCCN1c1cc(C2(S(C)(=N)=O)CC2)nc(-c2ccnc3[nH]ccc23)n1` (stereo not given): the IC50 is over 10000 nM. Moreover, the viability, T/C (compound 0.0316 µM) is 91.7% and 96% and 106%. Moreover, the viability, T/C (compound 0.1 µM) is 97.2% and 92.7% and 96.5%. For the same compound, the viability, T/C (compound 0.316 µM) was 113% and 91.9% and 99.5%. For the same compound, the viability, T/C (compound 1 µM) is 88.5% and 94.4% and 104%. The viability, T/C (compound 3.16 µM) was 81.9% and 85.5% and 81.5%. Further, the viability, T/C (compound 10 µM) was 58% and 64.2% and 54.1%.

For `CCCS(=O)(=O)Nc1ccc(F)c(C(=O)c2c[nH]c3ncc(-c4ccc(Cl)cc4)cc23)c1F`, the IC50 was over 10000 nM. For the same compound, under “compound 0.0316 µM”, the viability, T/C is 113% and 104% and 102%. Moreover, the viability, T/C (compound 0.1 µM) was 96.8% and 107% and 99.6%. Moreover, for the setting “compound 0.316 µM”, the viability, T/C is 109% and 103% and 107%. Besides, the viability, T/C (compound 1 µM) is 95.2% and 107% and 104%. Also, the viability, T/C (compound 3.16 µM) is 109% and 98.7% and 92.9%. In addition, the viability, T/C (compound 10 µM) was 76.7% and 72.3% and 60.6%.

`CC[C@@]1(O)C(=O)OCc2c1cc1n(c2=O)Cc2cc3c(CN(C)C)c(O)ccc3nc2-1`: the IC50 was > 100 nM and 95.5 nM. The viability, T/C (compound 0.000316 µM) is 96.5% and 108% and 99.8%. Further, the viability, T/C (compound 0.001 µM) is 94.6% and 99.2% and 92.7%. Further, the viability, T/C (compound 0.00316 µM) was 93.4% and 95.2% and 101%. Where the note is “compound 0.01 µM”, the viability, T/C was 92.8% and 107% and 103%. The viability, T/C (compound 0.0316 µM) is 84.9% and 95.7% and 77.4%. In addition, the viability, T/C (compound 0.1 µM) is 59.5% and 63.6% and 48.9%.

As for `CCc1c2c(nc3ccc(O)cc13)-c1cc3c(c(=O)n1C2)COC(=O)[C@]3(O)CC`, the IC50 was 62.3 nM and 99.3 nM and 48.2 nM. For the same compound, where the note is “compound 0.00316 µM”, the viability, T/C is 94.8% and 105% and 94%. Also, the viability, T/C (compound 0.01 µM) is 77.7% and 88.3% and 80.5%. Further, the viability, T/C (compound 0.0316 µM) is 50.6% and 60% and 54.1%. Also, under “compound 0.1 µM”, the viability, T/C is 49.2% and 52.5% and 41.1%. Further, under “compound 0.316 µM”, the viability, T/C was 37.8% and 45.3% and 34.1%. The viability, T/C (compound 1 µM) is 30.3% and 37.3% and 29.6%.

As to `CNCc1ccc(-c2[nH]c3cc(F)cc4c3c2CCNC4=O)cc1`, the IC50 is over 10000 nM. Also, the viability, T/C (compound 0.0316 µM) was 108% and 93.3% and 101%. Also, the viability, T/C (compound 0.1 µM) was 101% and 96% and 102%. Besides, the viability, T/C (compound 0.316 µM) was 102% and 103% and 97.2%. Besides, the viability, T/C (compound 1 µM) was 103% and 91.5% and 93.2%. Moreover, the viability, T/C (compound 3.16 µM) is 94.7% and 95.1% and 93.3%. Also, the viability, T/C (compound 10 µM) was 99.7% and 98% and 92.6%.

What is called viability, T/C is the ratio of treated to control. In general, IC50 refers to the concentration that inhibits the measured activity by half.
